Results as given in paper PMC2817709, “A Novel High-Affinity Sucrose Transporter Is Required for Virulence of the Plant Pathogen Ustilago maydis” (PLoS Biology, 2010).

Tests used:
Srt1 = biological target: T1, Srt1 (Mycosarcoma maydis, UniProt A0A0D1E1N5); assay: competition with […]-sucrose uptake in srt1-expressing S. cerevisiae; format: cell-based; settings: 10 mM competitor (100-fold excess) against 0.1 mM 14C-sucrose; pH 5.0, 29°C
T1 construct: gene UMAG_02374; full-length ORF, 546 residues, 12 predicted TMDs, untagged in vector NEV-E; expressed in invertase-deficient S. cerevisiae SEY2102
T1 sequence (A0A0D1E1N5 entry or part of it): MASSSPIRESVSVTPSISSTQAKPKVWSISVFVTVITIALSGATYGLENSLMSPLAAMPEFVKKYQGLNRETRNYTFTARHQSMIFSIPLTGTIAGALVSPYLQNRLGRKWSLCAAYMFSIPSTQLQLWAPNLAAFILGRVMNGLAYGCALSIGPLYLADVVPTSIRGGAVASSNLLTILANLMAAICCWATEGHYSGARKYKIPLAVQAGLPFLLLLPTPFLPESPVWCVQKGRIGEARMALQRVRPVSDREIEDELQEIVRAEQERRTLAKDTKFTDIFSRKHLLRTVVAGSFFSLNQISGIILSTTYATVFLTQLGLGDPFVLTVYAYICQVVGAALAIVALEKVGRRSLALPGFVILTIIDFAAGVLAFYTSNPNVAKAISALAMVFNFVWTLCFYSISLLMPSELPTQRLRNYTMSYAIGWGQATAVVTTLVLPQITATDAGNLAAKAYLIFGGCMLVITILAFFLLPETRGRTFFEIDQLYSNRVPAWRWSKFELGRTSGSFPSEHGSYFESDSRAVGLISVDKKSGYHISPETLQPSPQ

[1] = system: OC[C@H]1O[C@@](CO)(O[C@H]2O[C@H](CO)[C@@H](O)[C@H](O)[C@H]2O)[C@@H](O)[C@@H]1O; assay: cells, lysate or membranes; settings: pH 5.0, 50 mM Na-phosphate, 29°C, H+ symport, labelled compound

Molecule | inhibition of sucrose uptake (Srt1) | Km [1] [µM]
OC[C@H]1O[C@H](OC[C@H]2O[C@H](O[C@]3(CO)O[C@H](CO)[C@@H](O)[C@@H]3O)[C@H](O)[C@@H](O)[C@@H]2O)[C@H](O)[C@@H](O)[C@H]1O [raffinose] | raffinose was the only alternative compound that caused a minor inhibition of sucrose uptake | 
Srt1 (Mycosarcoma maydis) |  | 26 ± 4.3
